{
  "source": "patent US20220090096A1",
  "about": "(priority 2019, published 2022)",
  "key": {"[1]": {"tested_on": "catP reporter (Chloramphenicol Acetyl Transferase, CAT)", "type": "cell-based, Clostridium sporogenes NCIMB 10696"}, "C. sporogenes": {"tested_on": "C. sporogenes", "type": "cell-based, Clostridium sporogenes", "conditions": "theophylline 0.1-10 mM supplemented at time zero", "procedure": "For growth experiments, pre-cultures grown for 12 hours were diluted to a starting OD600 of 0.01 with fresh medium containing different concentrations of the inducer theophylline (0-10 mM). Because theophylline is dissolved in DMSO, appropriate quantities of DMSO were added to all the cultures to account for any effect DMSO might have on growth."}, "Clostridium sporogenes": {"tested_on": "Clostridium sporogenes", "type": "in vitro ADME", "conditions": "2 mM in TYG medium; up to 20 hours", "procedure": "To analyse if C. sporogenes consumes theophylline, 12 hour cultures were diluted to a staring OD600 of 0.01. At an OD600 of ≈0.5 cultures were induced with 2 mM theophylline. 1 mL samples were taken immediately and then at 2, 4, 6, 8, 10 and 20 hours after supplementation of theophylline. Samples were centrifuged for 10 min and 10000×g. Supernatants were used to determine the concentration of theophylline using an Alliance HT 2795 HPLC (Waters corporation) coupled to a Micromass Quattro LC Mass Spectrometer (Waters Wilmslow) in positive mode from m/z 70 to 500 for all samples at a scan rate of 1 cycle/s and equipped with an electrospray source. The general parameters were as follows: capillary voltage 2000 V, sampling cone 30 V, source temperature 130° C., desolvation temperature 350° C., cone gas flow 64 L/h and desolvation gas flow 621 L/h.\nPrior to ionization, chromatographic separation was achieved using a Supelco Ascentis Express HPLC column (100 mm×3 mm, 2.7 μM, Sigma Aldrich). The mobile phase consisted of (A) water with 0.1% v/v formic acid and (B) methanol with 0.1% v/v formic acid. […]\nAs requisite of a good inducer, it was ascertained that theophylline is not metabolized by Clostridium sporogenes. […] The concentration of theophylline was monitored by HPLC/MS (high-performance liquid chromatography-mass spectrometry) analysis of cell-free supernatant samples over time."}},
  "data": [
    {"smiles": "Cn1c(=O)c2[nH]cnc2n(C)c1=O", "note": "[theophylline]", "values": [
      {"measurement": "dose dependency of gene expression", "setting": "[1]", "value": "higher levels of gene expression"},
      {"measurement": "concentrations resulting in a reduction of growth", "setting": "C. sporogenes", "value": "higher than 5 mM"},
      {"measurement": "concentration of theophylline in cell-free supernatant over time", "setting": "Clostridium sporogenes", "value": "remains constant"}
    ]}
  ]
}
